Measurements as given in paper PMC4191898 (Bioorganic & medicinal chemistry letters, 2014).

Tested on: DU-145 cells
Experiment: antiproliferative activity against DU-145 cells
Format: cell-based, human
Conditions: for GI50: means of three experiments ± standard deviation, Inactive = <20% DU-145 growth inhibition at 50 μM

SMILES | antiproliferative activity (in words) | GI50 | GI50 values (range in words)
CN(Cc1ccco1)C(=O)N1CCC(c2nc(-c3ccc(F)cc3)no2)CC1 [Compound 8a] | markedly lower |  | 
CCCCNC(=O)N1CCC(c2nc(-c3ccc(F)cc3)no2)CC1 [Compound 8b] | no activity was detected | Inactive | 
COC(=O)CNC(=O)N1CCC(c2nc(-c3ccc(F)cc3)no2)CC1 [Compound 8e] | no activity was detected | Inactive | 
O=C(NCc1ccsc1)N1CCC(c2nc(-c3ccc(F)cc3)no2)CC1 [Compound 8g] |  |  | submicromolar range
O=C(N1CCC(c2nc(-c3ccc(F)cc3)no2)CC1)N1CCCc2ccccc21 [Compound 8i] | complete loss | Inactive | 
O=C(N1CCC(c2nc(-c3ccc(F)cc3)no2)CC1)N1CCc2ccccc2C1 [Compound 8j] | markedly lower |  | 
C#CCNC(=O)N1CCC(c2nc(-c3ccc(F)cc3)no2)CC1 [Compound 8k] | no activity was detected | Inactive | 
O=C(N1CCC(c2nc(-c3ccc(F)cc3)no2)CC1)N1CCc2ccccc21 [Compound 8l] |  | Inactive | 
O=C(N1CCCCC1)N1CCC(c2nc(-c3ccc(F)cc3)no2)CC1 [Compound 8m] |  | Inactive | 
O=C(N1CCOCC1)N1CCC(c2nc(-c3ccc(F)cc3)no2)CC1 [Compound 8n] |  | Inactive | 
Cc1cc(CNC(=O)N2CCC(c3nc(-c4ccc(F)cc4)no3)CC2)nn1C [Compound 8o] |  |  | submicromolar range
CC(C)(C)NC(=O)N1CCC(c2nc(-c3ccc(F)cc3)no2)CC1 [Compound 8q] |  | Inactive | 
COCCNC(=O)N1CCC(c2nc(-c3ccc(F)cc3)no2)CC1 [Compound 8r] |  | Inactive | 
O=C(NCC1CC1)N1CCC(c2nc(-c3ccc(F)cc3)no2)CC1 [Compound 8s] |  | Inactive | 
O=C(NCc1ccccc1)N1CCC(c2nc(Cc3ccccc3)no2)CC1 [Compound 11b] |  |  | submicromolar range
O=C(NCc1ccccc1)N1CCC(c2nc(COc3ccccc3)no2)CC1 [Compound 11d] |  |  | submicromolar range
CC(C)Cc1noc(C2CCN(C(=O)NCc3ccccc3)CC2)n1 [Compound 11i] |  | Inactive | 
Cc1noc(C2CCN(C(=O)NCc3ccccc3)CC2)n1 [Compound 11j] |  | Inactive | 
O=C(NCc1ccsc1)N1CCCC(c2nc(Cc3ccccc3)no2)C1 (centres unmarked) [Compound 13] | completely eliminated |  | 
O=C(NCc1ccsc1)N1CCCCC1c1nc(Cc2ccccc2)no1 (centres unmarked) [Compound 14] | completely eliminated |  | 
O=C(NCc1ccsc1)N1CCC(c2nc(Cc3ccccc3)no2)C1 (centres unmarked) [Compound 15] | drastically reduced |  | 
O=C(NCc1ccsc1)N1CCCC1c1nc(Cc2ccccc2)no1 (centres unmarked) [Compound 16] | completely eliminated |  | 
